Laboratory results as given in patent publication US6673812B1, “Preventives/remedies for glaucoma” (Senju Pharmaceutical Co., Ltd., priority 1998, dated 2004).

System: Japanese white rabbits
Experiment: Ophthalmic disorder caused by 8-time-a-day instillation to white rabbits: macroscopic observation of anterior segment of the eye
Format: in vivo, rabbit
Parameters: scale not given here
Conditions: mean of three eyes
Method: The test drugs, Compound A and Compound C, were each dissolved in the following base at a concentration of 0.125, 0.25, 0.5 and 1.0% and adjusted to pH 7 for use in this experiment. [table] Japanese white rabbits (body weight about 2 kg) purchased from Japan Laboratory Animals, INC. were used. These animals were bred in a breeding chamber set to temperature 23±3° C., humidity 55±10% and fed on limited amount of 100 g a day of a solid feed (Labo R Stock, Nihon-Nosan Kogyo K.K.). They were allowed free access to tap water. Instillation: Using a micropipet, each test drug (100 μl) was instilled into the right eye of each animal 8 times at one hour intervals. Into the left eye was instilled a base in the same manner. Observation: anterior segment of the eye was macroscopically observed before instillation and 30 min after 2nd, 4th, 6th and 8th administrations, according to the macroscopic criteria for ocular lesions as shown in Table 1 (Naruyuki Fukui, […] no Rinshou 4, 277-289, 1970). In addition, corneal staining spot was observed before instillation and after 8th administration. [table]

[1] = 0.125%, 30 min after 2nd instillation
[2] = 0.125%, 30 min after 4th instillation
[3] = 0.125%, 30 min after 6th instillation
[4] = 0.125%, 30 min after 8th instillation
[5] = 0.25%, 30 min after 2nd instillation
[6] = 0.25%, 30 min after 4th instillation
[7] = 0.25%, 30 min after 6th instillation
[8] = 0.25%, 30 min after 8th instillation
[9] = 0.5%, 30 min after 2nd instillation
[10] = 0.5%, 30 min after 4th instillation
[11] = 0.5%, 30 min after 6th instillation
[12] = 0.5%, 30 min after 8th instillation
[13] = 1.0%, 30 min after 2nd instillation
[14] = 1.0%, 30 min after 4th instillation
[15] = 1.0%, 30 min after 6th instillation
[16] = 1.0%, 30 min after 8th instillation

Score of ocular lesions: Conjunctiva Bulbar redness [1]: 0.33
Score of ocular lesions: Conjunctiva Discharge [1]: 0
Score of ocular lesions: Conjunctiva Nictitating membrane [1]: 0
Score of ocular lesions: Conjunctiva Palpebral edema [1]: 0
Score of ocular lesions: Conjunctiva Palpebral redness [1]: 0.17
Score of ocular lesions: Cornea Area [1]: 0
Score of ocular lesions: Cornea Degree [1]: 0
Score of ocular lesions: Iris Values [1]: 0
Score of ocular lesions: Total score [1]: 0.50
Score of ocular lesions: Conjunctiva Bulbar redness [2]: 0.33
Score of ocular lesions: Conjunctiva Discharge [2]: 0.17
Score of ocular lesions: Conjunctiva Nictitating membrane [2]: 0
Score of ocular lesions: Conjunctiva Palpebral edema [2]: 0
Score of ocular lesions: Conjunctiva Palpebral redness [2]: 0
Score of ocular lesions: Cornea Area [2]: 0
Score of ocular lesions: Cornea Degree [2]: 0
Score of ocular lesions: Iris Values [2]: 0
Score of ocular lesions: Total score [2]: 0.50
Score of ocular lesions: Conjunctiva Bulbar redness [3]: 0.33
Score of ocular lesions: Conjunctiva Discharge [3]: 0.50
Score of ocular lesions: Conjunctiva Nictitating membrane [3]: 0
Score of ocular lesions: Conjunctiva Palpebral edema [3]: 0.33
Score of ocular lesions: Conjunctiva Palpebral redness [3]: 0.33
Score of ocular lesions: Cornea Area [3]: 0
Score of ocular lesions: Cornea Degree [3]: 0
Score of ocular lesions: Iris Values [3]: 0
Score of ocular lesions: Total score [3]: 1.99
Score of ocular lesions: Conjunctiva Bulbar redness [4]: 0.33
Score of ocular lesions: Conjunctiva Discharge [4]: 0
Score of ocular lesions: Conjunctiva Nictitating membrane [4]: 0.17
Score of ocular lesions: Conjunctiva Palpebral edema [4]: 0.50
Score of ocular lesions: Conjunctiva Palpebral redness [4]: 0.33
Score of ocular lesions: Cornea Area [4]: 0
Score of ocular lesions: Cornea Degree [4]: 0
Score of ocular lesions: Iris Values [4]: 0
Score of ocular lesions: Total score [4]: 1.33
Score of ocular lesions: Conjunctiva Bulbar redness (0.125%, Before instillation): 0
Score of ocular lesions: Conjunctiva Discharge (0.125%, Before instillation): 0
Score of ocular lesions: Conjunctiva Nictitating membrane (0.125%, Before instillation): 0
Score of ocular lesions: Conjunctiva Palpebral edema (0.125%, Before instillation): 0
Score of ocular lesions: Conjunctiva Palpebral redness (0.125%, Before instillation): 0
Score of ocular lesions: Cornea Area (0.125%, Before instillation): 0
Score of ocular lesions: Cornea Degree (0.125%, Before instillation): 0
Score of ocular lesions: Iris Values (0.125%, Before instillation): 0
Score of ocular lesions: Total score (0.125%, Before instillation): 0
Score of ocular lesions: Conjunctiva Bulbar redness [5]: 0.50
Score of ocular lesions: Conjunctiva Discharge [5]: 0
Score of ocular lesions: Conjunctiva Nictitating membrane [5]: 0.17
Score of ocular lesions: Conjunctiva Palpebral edema [5]: 0
Score of ocular lesions: Conjunctiva Palpebral redness [5]: 0.17
Score of ocular lesions: Cornea Area [5]: 0
Score of ocular lesions: Cornea Degree [5]: 0
Score of ocular lesions: Iris Values [5]: 0
Score of ocular lesions: Total score [5]: 0.84
Score of ocular lesions: Conjunctiva Bulbar redness [6]: 0.50
Score of ocular lesions: Conjunctiva Discharge [6]: 0.17
Score of ocular lesions: Conjunctiva Nictitating membrane [6]: 0.50
Score of ocular lesions: Conjunctiva Palpebral edema [6]: 0
Score of ocular lesions: Conjunctiva Palpebral redness [6]: 0
Score of ocular lesions: Cornea Area [6]: 0
Score of ocular lesions: Cornea Degree [6]: 0
Score of ocular lesions: Iris Values [6]: 0
Score of ocular lesions: Total score [6]: 1.00
Score of ocular lesions: Conjunctiva Bulbar redness [7]: 0.50
Score of ocular lesions: Conjunctiva Discharge [7]: 0.50
Score of ocular lesions: Conjunctiva Nictitating membrane [7]: 0.50
Score of ocular lesions: Conjunctiva Palpebral edema [7]: 0.17
Score of ocular lesions: Conjunctiva Palpebral redness [7]: 0.33
Score of ocular lesions: Cornea Area [7]: 0
Score of ocular lesions: Cornea Degree [7]: 0
Score of ocular lesions: Iris Values [7]: 0
Score of ocular lesions: Total score [7]: 1.50
Score of ocular lesions: Conjunctiva Bulbar redness [8]: 0.83
Score of ocular lesions: Conjunctiva Discharge [8]: 0
Score of ocular lesions: Conjunctiva Nictitating membrane [8]: 0.50
Score of ocular lesions: Conjunctiva Palpebral edema [8]: 0
Score of ocular lesions: Conjunctiva Palpebral redness [8]: 0.33
Score of ocular lesions: Cornea Area [8]: 0
Score of ocular lesions: Cornea Degree [8]: 0
Score of ocular lesions: Iris Values [8]: 0
Score of ocular lesions: Total score [8]: 1.66
Score of ocular lesions: Conjunctiva Bulbar redness (0.25%, Before instillation): 0
Score of ocular lesions: Conjunctiva Discharge (0.25%, Before instillation): 0
Score of ocular lesions: Conjunctiva Nictitating membrane (0.25%, Before instillation): 0
Score of ocular lesions: Conjunctiva Palpebral edema (0.25%, Before instillation): 0
Score of ocular lesions: Conjunctiva Palpebral redness (0.25%, Before instillation): 0
Score of ocular lesions: Cornea Area (0.25%, Before instillation): 0
Score of ocular lesions: Cornea Degree (0.25%, Before instillation): 0
Score of ocular lesions: Iris Values (0.25%, Before instillation): 0
Score of ocular lesions: Total score (0.25%, Before instillation): 0
Score of ocular lesions: Conjunctiva Bulbar redness [9]: 0.50
Score of ocular lesions: Conjunctiva Discharge [9]: 0
Score of ocular lesions: Conjunctiva Nictitating membrane [9]: 0
Score of ocular lesions: Conjunctiva Palpebral edema [9]: 0.17
Score of ocular lesions: Conjunctiva Palpebral redness [9]: 0.17
Score of ocular lesions: Cornea Area [9]: 0
Score of ocular lesions: Cornea Degree [9]: 0
Score of ocular lesions: Iris Values [9]: 0
Score of ocular lesions: Total score [9]: 0.49
Score of ocular lesions: Conjunctiva Bulbar redness [10]: 0.50
Score of ocular lesions: Conjunctiva Discharge [10]: 0.33
Score of ocular lesions: Conjunctiva Nictitating membrane [10]: 0.33
Score of ocular lesions: Conjunctiva Palpebral edema [10]: 0.17
Score of ocular lesions: Conjunctiva Palpebral redness [10]: 0.17
Score of ocular lesions: Cornea Area [10]: 0
Score of ocular lesions: Cornea Degree [10]: 0
Score of ocular lesions: Iris Values [10]: 0
Score of ocular lesions: Total score [10]: 1.50
Score of ocular lesions: Conjunctiva Bulbar redness [11]: 0.50
Score of ocular lesions: Conjunctiva Discharge [11]: 2.67
Score of ocular lesions: Conjunctiva Nictitating membrane [11]: 0.50
Score of ocular lesions: Conjunctiva Palpebral edema [11]: 0.83
Score of ocular lesions: Conjunctiva Palpebral redness [11]: 0.67
Score of ocular lesions: Cornea Area [11]: 0
Score of ocular lesions: Cornea Degree [11]: 0
Score of ocular lesions: Iris Values [11]: 0
Score of ocular lesions: Total score [11]: 5.17
Score of ocular lesions: Conjunctiva Bulbar redness [12]: 0.83
Score of ocular lesions: Conjunctiva Discharge [12]: 1.17
Score of ocular lesions: Conjunctiva Nictitating membrane [12]: 0.67
Score of ocular lesions: Conjunctiva Palpebral edema [12]: 0.67
Score of ocular lesions: Conjunctiva Palpebral redness [12]: 0.67
Score of ocular lesions: Cornea Area [12]: 0
Score of ocular lesions: Cornea Degree [12]: 0
Score of ocular lesions: Iris Values [12]: 0
Score of ocular lesions: Total score [12]: 4.01
Score of ocular lesions: Conjunctiva Bulbar redness (0.5%, Before instillation): 0.17
Score of ocular lesions: Conjunctiva Discharge (0.5%, Before instillation): 0
Score of ocular lesions: Conjunctiva Nictitating membrane (0.5%, Before instillation): 0
Score of ocular lesions: Conjunctiva Palpebral edema (0.5%, Before instillation): 0
Score of ocular lesions: Conjunctiva Palpebral redness (0.5%, Before instillation): 0
Score of ocular lesions: Cornea Area (0.5%, Before instillation): 0
Score of ocular lesions: Cornea Degree (0.5%, Before instillation): 0
Score of ocular lesions: Iris Values (0.5%, Before instillation): 0
Score of ocular lesions: Total score (0.5%, Before instillation): 0.17
Score of ocular lesions: Conjunctiva Bulbar redness [13]: 0.50
Score of ocular lesions: Conjunctiva Discharge [13]: 0.33
Score of ocular lesions: Conjunctiva Nictitating membrane [13]: 0.17
Score of ocular lesions: Conjunctiva Palpebral edema [13]: 0.67
Score of ocular lesions: Conjunctiva Palpebral redness [13]: 0.50
Score of ocular lesions: Cornea Area [13]: 0
Score of ocular lesions: Cornea Degree [13]: 0
Score of ocular lesions: Iris Values [13]: 0
Score of ocular lesions: Total score [13]: 2.17
Score of ocular lesions: Conjunctiva Bulbar redness [14]: 0.50
Score of ocular lesions: Conjunctiva Discharge [14]: 0.67
Score of ocular lesions: Conjunctiva Nictitating membrane [14]: 0.50
Score of ocular lesions: Conjunctiva Palpebral edema [14]: 0.67
Score of ocular lesions: Conjunctiva Palpebral redness [14]: 0.50
Score of ocular lesions: Cornea Area [14]: 0
Score of ocular lesions: Cornea Degree [14]: 0
Score of ocular lesions: Iris Values [14]: 0
Score of ocular lesions: Total score [14]: 2.84
Score of ocular lesions: Conjunctiva Bulbar redness [15]: 1.17
Score of ocular lesions: Conjunctiva Discharge [15]: 1.67
Score of ocular lesions: Conjunctiva Nictitating membrane [15]: 0.67
Score of ocular lesions: Conjunctiva Palpebral edema [15]: 1.33
Score of ocular lesions: Conjunctiva Palpebral redness [15]: 0.83
Score of ocular lesions: Cornea Area [15]: 0
Score of ocular lesions: Cornea Degree [15]: 0
Score of ocular lesions: Iris Values [15]: 0
Score of ocular lesions: Total score [15]: 5.67
Score of ocular lesions: Conjunctiva Bulbar redness [16]: 1.50
Score of ocular lesions: Conjunctiva Discharge [16]: 2.33
Score of ocular lesions: Conjunctiva Nictitating membrane [16]: 1.67
Score of ocular lesions: Conjunctiva Palpebral edema [16]: 3.00
Score of ocular lesions: Conjunctiva Palpebral redness [16]: 2.17
Score of ocular lesions: Cornea Area [16]: 0
Score of ocular lesions: Cornea Degree [16]: 0
Score of ocular lesions: Iris Values [16]: 0
Score of ocular lesions: Total score [16]: 10.67
Score of ocular lesions: Conjunctiva Bulbar redness (1.0%, Before instillation): 0
Score of ocular lesions: Conjunctiva Discharge (1.0%, Before instillation): 0
Score of ocular lesions: Conjunctiva Nictitating membrane (1.0%, Before instillation): 0
Score of ocular lesions: Conjunctiva Palpebral edema (1.0%, Before instillation): 0
Score of ocular lesions: Conjunctiva Palpebral redness (1.0%, Before instillation): 0.17
Score of ocular lesions: Cornea Area (1.0%, Before instillation): 0
Score of ocular lesions: Cornea Degree (1.0%, Before instillation): 0
Score of ocular lesions: Iris Values (1.0%, Before instillation): 0
Score of ocular lesions: Total score (1.0%, Before instillation): 0.17
SMILES: CC(N)[C@H]1CC[C@H](C(=O)Nc2ccncc2)CC1.Cl.Cl.O (single isomer, unassigned; (+)) [Compound A, (+)-trans-4-(1-Aminoethyl)-1-(4-pyridylcarbamoyl)cyclohexane 2HCl 1H2O]
